{"source": "patent US5641800A", "about": "“1H-indole-1-functional sPLA2 inhibitors” (Eli Lilly and Company, priority 1995, dated 1997)", "key": {"human secreted PLA2": {"molecular_target": "T1, human secreted PLA2 (Homo sapiens, UniProt P14555)", "T1 sequence (P14555 21-144)": "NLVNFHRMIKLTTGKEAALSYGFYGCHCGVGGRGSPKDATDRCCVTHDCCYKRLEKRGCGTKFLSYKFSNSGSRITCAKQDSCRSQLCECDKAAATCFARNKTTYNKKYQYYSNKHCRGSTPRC", "assay": "Chromogenic assay, inhibition of recombinant human secreted phospholipase A2", "assay_type": "biochemical", "conditions": "recombinant human sPLA2, diheptanoyl thio-PC substrate, pH 7.5, 40° C., 30 minutes, 405 nm; ± mean deviation (3-4 tests)", "from_the_text": "The following chromogenic assay procedure was used to identify and evaluate inhibitors of recombinant human secreted phospholipase A2. The assay described herein has been adapted for high volume screening using 96 well microtiter plates. A general description of this assay method is found in the article, \"Analysis of Human Synovial Fluid Phospholipase A2 on Short Chain Phosphatidylcholine-Mixed Micelles: Development of a Spectrophotometric Assay Suitable for a Microtiterplate Reader\", by Laure J. Reynolds, Lori L. Hughes, and Edward A Dennis, Analytical Biochemistry,204, pp. 190-197, 1992 (the disclosure of which is incorporated herein by reference):\nBovine Serum Albumin (fatty acid free) (1 g/L) (Sigma A-7030, product of Sigma Chemical Co. St. Louis Mo., USA)\nracemic 1,2-bis(heptanoylthio)-1,2-dideoxy-sn-glycero-3-phosphorylcholine\nA measured volume of racemic dipheptanoyl thio PC supplied in chloroform at a concentration of 100 mg/ml is taken to dryness and redissolved in 10 millimolar TRITON X 100™ nonionic detergent aqueous solution. Reaction Buff added to the solution, then DTNB to give the Reaction Mixture.\nThe reaction mixture thus obtained contains […] diheptanoly thio-PC substrate, 0.29 mm Triton X-100™ detergent, and 0.12 mm DTMB in a buffered aqueous solution at pH 7.5.\n1. Add 0.2 ml reaction mixture to all wells;\n2. Add 10 ul test compound (or solvent blank) to appropriate wells, mix 20 seconds;\n3. Add 50 nanograms of sPLA2 (10 microliters) to appropriate wells;\n4. Incubate plate at 40° C. for 30 minutes;\n5. Read absorbance of wells at 405 nanometers with an automatic plate reader.\nAll compounds were tested in triplicate. Typically, compounds were tested am a final concentration of 5 ug/ml. […] Lack of color development at 405 nanometers evidenced inhibition. Compounds initially found to be active were reassayed to confirm their activity and, if sufficiently active, IC50 values were determined. […] In all cases, % inhibition measured at 405 nanometers generated by enzyme reactions containing inhibitors relative to the uninhibited control reactions was determined. Each sample was titrated in triplicate and result values were averaged for plotting and calculation of IC50 values. IC50 were determined by plotting log concentration versus inhibition values in the range from 10-90% inhibition."}, "[1]": {"molecular_target": "T2, Human Secreted Phospholipase A2 (Homo sapiens, UniProt P14555)", "T2 sequence (P14555 21-144)": "T1 sequence (P14555 21-144)", "assay": "Human secreted phospholipase A2 inhibition tests on guinea pig lung tissue (pleural strip contraction)", "assay_type": "tissue-based", "conditions": "guinea pig lung pleural strips, sPLA2-induced contraction, 37° C., compound added 30 min. prior; Schild slope 1, apparent KB = dissociation constant of the inhibitor; read-out: Tissue test secreted PLA2, Apparent KB", "from_the_text": "Male Hartley strain guinea pigs (500-700 g) were killed by cervical dislocation and their heart and lungs removed intact and placed in aerated (95% 02 :5% CO2) Krebs buffer. Dorsal pleural strips (4×1×25 mm) were dissected from intact parenchymal segments (8×4×25 mm) cut parallel to the outer edge of the lower lung lobes. Two adjacent pleural strips, obtained from a single lobe and representing a single tissue sample, were tied at either end and independently attached to a metal support rod. One rod was attached to a Grass force-displacement transducer (Model FTO3C, product of Grass Medical Instruments Co., Quincy, Mass., USA). […] All tissues were placed in 10 ml jacketed tissue baths maintained at 37° C. The tissue baths were continuously aerated and contained a modified Krebs solution of the following composition (millimolar) NaCl, 118.2; KCl, 4.6; CaCl2.2H2 O, 2.5; MgSO4.7H2 O, 1.2; NaHCO3, 24.8; KH2 PO4, 1.0; and dextrose, 10.0. Pleural strips from the opposite lobes of the lung were used for paired experiments.\nInitially tissues were challenged 3 times with KCl (40 mM) to test tissue viability and to obtain a consistent response. After recording the maximal response to KCl, the Elssues were washed and allowed to return to baseline before the next challenge. Cumulative concentration-response curves were obtained from pleural strips by increasing the agonist concentration (sPLA2) in the tissue bath by half-log10 increments while the previous concentration remained in contact with the tissues (Ref.1, supra.) Agonist concentration was increased after reaching the plateau of the contraction elicited by the preceding concentration. One concentration-response curve was obtained from each tissue. To minimize variability between tissues obtained from different animals, contractile responses were expressed as a percentage of the maximal response obtained with the final KCl challenge. […]\nData from different experiments were pooled and presented as a percentage of the maximal KCl responses (mean±S.E.). To estimate the drug induced rightward shifts in the concentration response curves, the curves were analyzed simultaneously using statistical nonlinear modeling methods similar to those described by Waud (1976), Equation 26, p. […] The Schild slope was determined to be 1, using statistical nonlinear modeling methods similar to those described by Waud 1976), Equation 27, p. […]\nTo estimate the drug-induced suppression of the maximal responses, sPLA2 responses (10 ug/ml) were determined in the absence and presence of drug, and percent suppression was calculated for each pair of tissues. […]"}}}
{"compound": "CCc1c(Cc2ccccc2)c2ccc(OCCCP(=O)(O)O)cc2n1CC(N)=O", "note": "[Example 3, [3-[[1-(2-amino-2-oxoethyl)-2-ethyl-3-(phenylmethyl)-1H-indol-6-yl]oxy]propyl]phosphonic acid]", "values": [{"measurement": "IC50", "setting": "human secreted PLA2", "result": "35 ± 8", "unit": "nM"}, {"measurement": "Kb", "setting": "[1]", "result": "415 ± 51", "unit": "nM"}]}
{"compound": "CCc1c(Cc2ccccc2)c2ccc(OCCCC(=O)O)cc2n1CC(N)=O", "note": "[Example 2, 4-[[1-(2-amino-2-oxoethyl)-2-ethyl-3-(phenylmethyl)-1H-indol-6-yl]oxy]butyric acid]", "values": [{"measurement": "IC50", "setting": "human secreted PLA2", "result": "33 ± 3", "unit": "nM"}, {"measurement": "Kb", "setting": "[1]", "result": "1470 ± 340", "unit": "nM"}]}
{"compound": "Cc1c(Cc2ccccc2)c2cccc(OCC(=O)O)c2n1CC(=O)NN", "note": "[Example 4, [[1-(2-hydrazino-2-oxoethyl)-2-methyl-3-(phenylmethyl)-1H-indol-7-yl]oxy]acetic acid]", "values": [{"measurement": "IC50", "setting": "human secreted PLA2", "result": "200 ± 90", "unit": "nM"}, {"measurement": "Kb", "setting": "[1]", "result": "1670 ± 280", "unit": "nM"}]}
{"compound": "Cc1c(Cc2ccccc2)c2cccc(OCC(=O)O)c2n1CC(N)=O", "note": "[Example 1, [[1-(2-Amino-2-oxoethyl)-2-methyl-3-(phenylmethyl)-1H-indol-7-yl]oxy]acetic acid]", "values": [{"measurement": "IC50", "setting": "human secreted PLA2", "result": "13 ± 2", "unit": "nM"}, {"measurement": "Kb", "setting": "[1]", "result": "390 ± 120", "unit": "nM"}]}
